Data reported in paper PMC11785093 (bioRxiv, 2025).
pKd: −log10 of the molar value. Like-named read-outs stand apart in the source and are kept apart here.

Assays:
DDB1 [1] = target: T1, DDB1 (Homo sapiens, UniProt Q16531); assay: SPR; assay type: binding; settings: read-out: estimated KD; biotinylated protein immobilised; pH […] °C, […] DMSO
DDB1 [2] = target: T1, DDB1; assay: SPR; assay type: binding; settings: biotinylated protein immobilised; pH […] °C, […] DMSO; site at W1047, Y1114

T1 sequence (Q16531 2-1140): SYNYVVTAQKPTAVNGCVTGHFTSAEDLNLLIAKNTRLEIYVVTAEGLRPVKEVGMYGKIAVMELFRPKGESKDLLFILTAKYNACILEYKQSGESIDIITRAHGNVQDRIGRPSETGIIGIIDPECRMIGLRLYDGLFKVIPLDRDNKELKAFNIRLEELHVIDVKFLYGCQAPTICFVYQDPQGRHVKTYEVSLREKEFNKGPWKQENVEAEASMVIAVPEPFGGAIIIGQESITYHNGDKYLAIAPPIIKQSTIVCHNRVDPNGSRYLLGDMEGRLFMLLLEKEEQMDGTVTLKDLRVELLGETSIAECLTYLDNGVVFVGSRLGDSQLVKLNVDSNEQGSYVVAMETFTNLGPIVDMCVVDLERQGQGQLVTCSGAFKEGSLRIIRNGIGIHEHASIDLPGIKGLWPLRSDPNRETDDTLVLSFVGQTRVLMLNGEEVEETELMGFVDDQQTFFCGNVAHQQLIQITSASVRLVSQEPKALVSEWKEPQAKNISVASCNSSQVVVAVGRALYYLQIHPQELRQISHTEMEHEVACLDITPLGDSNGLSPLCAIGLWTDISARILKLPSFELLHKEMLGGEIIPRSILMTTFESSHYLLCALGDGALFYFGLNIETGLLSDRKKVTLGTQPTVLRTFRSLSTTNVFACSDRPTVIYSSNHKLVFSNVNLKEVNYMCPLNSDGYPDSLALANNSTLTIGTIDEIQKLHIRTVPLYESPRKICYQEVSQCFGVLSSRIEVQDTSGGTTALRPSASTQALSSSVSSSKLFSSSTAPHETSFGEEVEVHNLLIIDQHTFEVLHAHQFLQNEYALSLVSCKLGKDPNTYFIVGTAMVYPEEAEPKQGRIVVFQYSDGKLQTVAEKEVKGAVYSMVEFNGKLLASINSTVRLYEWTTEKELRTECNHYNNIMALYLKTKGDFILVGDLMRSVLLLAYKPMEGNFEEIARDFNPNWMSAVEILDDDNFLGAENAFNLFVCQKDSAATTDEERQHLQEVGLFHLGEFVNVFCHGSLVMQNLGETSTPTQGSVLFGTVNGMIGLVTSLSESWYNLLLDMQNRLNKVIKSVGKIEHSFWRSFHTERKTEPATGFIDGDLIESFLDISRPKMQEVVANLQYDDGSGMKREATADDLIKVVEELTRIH

pKd (DDB1 [1])	pKd (DDB1 [2])	Compound
< 4.14		CCOc1cccc([C@H]2CC(=O)Nc3c2c(C)nn3-c2ccc3nncn3n2)c1 [(R)-XS381952]
	5.70	CCOc1cccc([C@@H]2CC(=O)Nc3c2c(C)nn3-c2ccc3nncn3n2)c1 [(S)-XS381952]
